# According to PMC9319939, “Siccanin Is a Dual-Target Inhibitor of Plasmodium falciparum Mitochondrial Complex II and Complex III” (Pharmaceuticals, 2022):
# Test system: Dd2 and drug-resistant panel strains
# Assay: Growth inhibition across Dd2 and drug-resistant panel strains
# Format: cell-based
# Conditions: Plasmodium falciparum, DD2, read-out: EC50s for growth inhibition, range over strains
# Experimental: P. falciparum 3D7-yDHODH was prepared and maintained as described previously. P. falciparum Dd2, and Dd2-derived mutant strains were kindly provided by David A. Fidock, and maintained at Nagasaki University essentially as described in reference, except without supplementation with WR99210.
# Synchronized ring-form parasites (0.3% parasitemia) were prepared in complete medium containing different concentration of various compounds (at a fixed final DMSO concentration of 0.1% (v/v)) and distributed to 96-well plates at 100 μL/well. After 72 h of incubation, parasite growth was monitored by the previously described lactate dehydrogenase (PfLDH)-based assay method; plates were read using a SpectraMax® Paradigm spectrophotometer (Molecular Devices, Inc.; San Jose, CA, USA). EC50 values were calculated using Prism® ver.6.01 (GraphPad; San Diego, CA, USA). Values are presented as the means of three independent experiments.
smiles,measurement,value
Cc1cc(O)c2c(c1)O[C@@]1(C)CC[C@H]3C(C)(C)CCC[C@]34CO[C@@H]2[C@H]41 [Siccanin],EC50,12.4 to 18.7 µM
